Data set [1] is described as follows: Rh(III)-catalysed intramolecular C(7)-H maleimidation of N-pivaloyl Trp (oxidative Heck-type C-C bond, indole C7 to maleimide CH): [RhCp*Cl2]2 10 mol%, AgNTf2 40 mol%, Ag2O 1.5 eq. The following applies: DCM, 12.0 mM, 80.0 °C, 24.0 h.
For data set [2], the target named is integrin αvβ3 (Homo sapiens, UniProt P05106+P06756). Nature of the data set: SPR binding to immobilised integrin αvβ3. Conditions: for kon: read-out: ka. In general terms: In SPR one partner is held on a chip, and binding of the other changes the refractive index at the surface.
For data set [3], the target named is integrin α5β1 (Homo sapiens, UniProt P05556+P08648). Nature of the data set: SPR binding to immobilised integrin α5β1. Conditions: for kon: read-out: ka.
Data set [4] deals with integrin αvβ5 (Homo sapiens, UniProt P06756+P18084). Nature of the data set: SPR binding to immobilised integrin αvβ5. Conditions: for kon: read-out: ka.
Data set [5] has as its system LO2 cells. Nature of the data set: Cytotoxicity by MTT assay, LO2. Conditions: LO2 normal cells, 0–40 μM, 36 h. A general note: Tetrazolium assays rely on reduction of a dye to a coloured formazan, in cell work by metabolically active cells.
In data set [6] the test system is A549 cells. Nature of the data set: Cytotoxicity by MTT assay, A549. The following applies: A549 (integrin αvβ3-positive), 0–40 μM, 36 h.
Data set [7] has as its system HeLa cells. Nature of the data set: Cytotoxicity by MTT assay, HeLa. The following applies: HeLa (integrin αvβ3-negative), 0–40 μM, 36 h.
Data set [8] deals with MIHA cells. Nature of the data set: Cytotoxicity by MTT assay, MIHA. The following applies: MIHA normal cells, 0–40 μM, 36 h.
The test system of data set [9] is U87MG cells. Nature of the data set: Cytotoxicity by MTT assay, U87MG. Conditions: U87MG (integrin αvβ3-positive), 0–40 μM, 36 h.
Data set [10] concerns MCF-7 cells. Nature of the data set: Cytotoxicity by MTT assay, MCF-7. The following applies: MCF-7 (integrin αvβ3-negative), 0–40 μM, 36 h.

The values that follow come from PMC10322970, “Modular synthesis of clickable peptides via late-stage maleimidation on C(7)-H tryptophan” (Nature Communications, 2023).

In general, Kd refers to the concentration at which binding is half-saturated. Higher therefore signals weaker binding.

Chain of integrin αvβ5 (P06756 31-1048): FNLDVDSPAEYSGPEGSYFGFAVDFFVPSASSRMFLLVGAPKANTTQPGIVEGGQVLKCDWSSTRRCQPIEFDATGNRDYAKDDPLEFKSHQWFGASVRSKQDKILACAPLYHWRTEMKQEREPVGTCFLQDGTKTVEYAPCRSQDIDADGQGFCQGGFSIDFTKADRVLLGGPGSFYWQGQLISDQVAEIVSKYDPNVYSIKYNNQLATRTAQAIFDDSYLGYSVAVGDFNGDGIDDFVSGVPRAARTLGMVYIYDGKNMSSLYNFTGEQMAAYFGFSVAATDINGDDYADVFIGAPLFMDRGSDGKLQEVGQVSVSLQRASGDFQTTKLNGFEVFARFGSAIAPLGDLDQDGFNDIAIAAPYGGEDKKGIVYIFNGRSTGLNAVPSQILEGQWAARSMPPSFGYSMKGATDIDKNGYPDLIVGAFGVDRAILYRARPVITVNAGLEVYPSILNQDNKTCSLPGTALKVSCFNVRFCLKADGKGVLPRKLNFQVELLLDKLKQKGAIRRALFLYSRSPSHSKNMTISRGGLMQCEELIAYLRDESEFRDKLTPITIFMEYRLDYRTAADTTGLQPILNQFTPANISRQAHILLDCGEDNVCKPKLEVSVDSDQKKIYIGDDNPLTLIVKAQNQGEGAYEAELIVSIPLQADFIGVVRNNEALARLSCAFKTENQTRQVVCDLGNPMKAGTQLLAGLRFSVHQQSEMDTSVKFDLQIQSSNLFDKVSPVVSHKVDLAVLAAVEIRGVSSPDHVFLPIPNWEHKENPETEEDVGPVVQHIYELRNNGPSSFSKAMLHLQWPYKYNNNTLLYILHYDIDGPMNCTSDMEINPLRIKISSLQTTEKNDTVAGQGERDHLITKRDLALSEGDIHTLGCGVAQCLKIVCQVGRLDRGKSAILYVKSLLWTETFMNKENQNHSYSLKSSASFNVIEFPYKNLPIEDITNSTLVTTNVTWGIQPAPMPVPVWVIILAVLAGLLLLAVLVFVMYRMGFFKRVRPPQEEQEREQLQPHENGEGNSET
Chain of integrin αvβ5 (P18084 24-799): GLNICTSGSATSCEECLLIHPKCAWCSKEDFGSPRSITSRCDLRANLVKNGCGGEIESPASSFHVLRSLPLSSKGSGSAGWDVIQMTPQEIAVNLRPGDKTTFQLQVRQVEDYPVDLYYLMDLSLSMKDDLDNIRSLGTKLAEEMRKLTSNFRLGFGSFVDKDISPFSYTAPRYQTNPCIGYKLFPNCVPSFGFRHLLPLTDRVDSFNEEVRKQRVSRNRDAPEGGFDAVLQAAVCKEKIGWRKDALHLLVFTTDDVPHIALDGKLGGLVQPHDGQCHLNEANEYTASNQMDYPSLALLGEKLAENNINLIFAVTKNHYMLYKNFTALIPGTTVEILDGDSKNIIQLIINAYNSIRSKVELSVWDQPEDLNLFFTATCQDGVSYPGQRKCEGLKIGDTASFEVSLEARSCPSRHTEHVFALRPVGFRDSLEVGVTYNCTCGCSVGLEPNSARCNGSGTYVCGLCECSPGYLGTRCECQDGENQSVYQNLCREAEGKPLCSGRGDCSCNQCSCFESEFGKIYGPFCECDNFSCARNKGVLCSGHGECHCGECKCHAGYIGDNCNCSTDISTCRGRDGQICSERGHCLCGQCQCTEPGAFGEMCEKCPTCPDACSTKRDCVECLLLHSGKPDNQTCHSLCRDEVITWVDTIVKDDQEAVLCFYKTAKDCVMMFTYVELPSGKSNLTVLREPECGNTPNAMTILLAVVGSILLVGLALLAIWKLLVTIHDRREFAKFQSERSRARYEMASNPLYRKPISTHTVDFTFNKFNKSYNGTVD
Chain of integrin αvβ3 (P06756 31-1048): as the sequence (P06756 31-1048) above
Chain of integrin αvβ3 (P05106 27-788): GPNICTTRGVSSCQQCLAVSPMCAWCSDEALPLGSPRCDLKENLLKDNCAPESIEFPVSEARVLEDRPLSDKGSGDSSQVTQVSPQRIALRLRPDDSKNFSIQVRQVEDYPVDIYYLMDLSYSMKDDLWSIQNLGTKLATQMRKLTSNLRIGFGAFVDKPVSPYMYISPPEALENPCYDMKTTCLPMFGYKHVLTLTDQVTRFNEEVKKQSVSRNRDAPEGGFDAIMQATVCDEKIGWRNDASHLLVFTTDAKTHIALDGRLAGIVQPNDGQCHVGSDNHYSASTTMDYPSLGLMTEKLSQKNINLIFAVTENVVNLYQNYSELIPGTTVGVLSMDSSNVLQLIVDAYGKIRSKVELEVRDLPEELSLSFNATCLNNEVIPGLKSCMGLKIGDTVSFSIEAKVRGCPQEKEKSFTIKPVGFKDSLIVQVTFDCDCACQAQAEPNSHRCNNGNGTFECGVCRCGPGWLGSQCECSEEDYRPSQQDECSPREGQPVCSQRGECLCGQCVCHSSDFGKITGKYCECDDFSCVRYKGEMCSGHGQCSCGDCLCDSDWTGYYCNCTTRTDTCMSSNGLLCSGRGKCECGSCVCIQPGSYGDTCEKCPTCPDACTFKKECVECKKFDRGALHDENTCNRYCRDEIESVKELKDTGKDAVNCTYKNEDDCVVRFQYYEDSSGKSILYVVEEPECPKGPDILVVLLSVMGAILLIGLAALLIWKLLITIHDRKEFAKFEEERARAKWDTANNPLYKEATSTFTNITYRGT
Chain of integrin α5β1 (P08648 42-1049): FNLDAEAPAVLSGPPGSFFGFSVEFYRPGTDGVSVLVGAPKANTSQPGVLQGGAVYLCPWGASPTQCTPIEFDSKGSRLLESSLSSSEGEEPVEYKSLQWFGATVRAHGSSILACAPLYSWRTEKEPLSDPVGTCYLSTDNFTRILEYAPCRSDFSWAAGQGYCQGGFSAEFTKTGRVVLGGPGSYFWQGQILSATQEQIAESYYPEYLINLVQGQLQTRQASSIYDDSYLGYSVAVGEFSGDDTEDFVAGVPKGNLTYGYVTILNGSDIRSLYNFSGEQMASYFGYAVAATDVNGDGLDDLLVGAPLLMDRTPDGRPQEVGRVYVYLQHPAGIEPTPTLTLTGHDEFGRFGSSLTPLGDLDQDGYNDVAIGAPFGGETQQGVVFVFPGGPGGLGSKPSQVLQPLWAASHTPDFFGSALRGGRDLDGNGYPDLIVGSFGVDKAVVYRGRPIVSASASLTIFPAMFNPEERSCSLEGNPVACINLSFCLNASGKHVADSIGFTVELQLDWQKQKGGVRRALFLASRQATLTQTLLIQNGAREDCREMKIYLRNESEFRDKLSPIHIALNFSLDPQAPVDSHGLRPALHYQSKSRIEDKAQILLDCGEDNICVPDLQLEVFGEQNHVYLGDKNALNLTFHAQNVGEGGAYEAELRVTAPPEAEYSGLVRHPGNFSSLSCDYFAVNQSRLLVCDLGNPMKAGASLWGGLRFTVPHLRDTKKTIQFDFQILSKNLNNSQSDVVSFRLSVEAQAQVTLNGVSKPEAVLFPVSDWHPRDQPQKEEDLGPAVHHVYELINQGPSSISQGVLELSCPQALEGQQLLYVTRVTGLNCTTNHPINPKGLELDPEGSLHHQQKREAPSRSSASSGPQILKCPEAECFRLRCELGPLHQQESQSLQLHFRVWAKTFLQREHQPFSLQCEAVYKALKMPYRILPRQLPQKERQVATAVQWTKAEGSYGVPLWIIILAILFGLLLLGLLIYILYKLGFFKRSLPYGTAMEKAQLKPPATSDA
Chain of integrin α5β1 (P05556 21-798): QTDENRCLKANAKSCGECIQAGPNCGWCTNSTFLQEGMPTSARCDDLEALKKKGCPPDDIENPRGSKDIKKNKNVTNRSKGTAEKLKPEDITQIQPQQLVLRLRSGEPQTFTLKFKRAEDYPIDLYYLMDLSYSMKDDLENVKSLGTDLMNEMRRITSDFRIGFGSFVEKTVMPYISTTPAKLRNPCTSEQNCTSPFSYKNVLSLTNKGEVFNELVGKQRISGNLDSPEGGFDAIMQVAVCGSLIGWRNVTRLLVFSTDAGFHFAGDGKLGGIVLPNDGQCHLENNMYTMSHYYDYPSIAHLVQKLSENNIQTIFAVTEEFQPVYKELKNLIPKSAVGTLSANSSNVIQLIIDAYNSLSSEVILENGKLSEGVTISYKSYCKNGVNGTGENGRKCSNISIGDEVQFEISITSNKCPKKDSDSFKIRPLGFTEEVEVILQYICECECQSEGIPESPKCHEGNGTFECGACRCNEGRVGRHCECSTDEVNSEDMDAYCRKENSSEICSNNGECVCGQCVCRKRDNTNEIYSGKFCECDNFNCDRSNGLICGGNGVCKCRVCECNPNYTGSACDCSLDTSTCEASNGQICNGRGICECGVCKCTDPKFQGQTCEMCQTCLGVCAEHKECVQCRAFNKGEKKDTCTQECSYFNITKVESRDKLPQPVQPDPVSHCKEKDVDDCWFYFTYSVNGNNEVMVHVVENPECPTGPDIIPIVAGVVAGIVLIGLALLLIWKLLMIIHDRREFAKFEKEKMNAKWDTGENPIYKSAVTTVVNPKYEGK

In the case of `COC(=O)[C@@H]1Cc2cn(C(=O)C(C)(C)C)c3c(cccc23)C2=CC(=O)N(CCCC[C@H](NC(=O)OC(C)(C)C)C(=O)N[C@@H](CCCNC(=N)NS(=O)(=O)c3c(C)c(C)c4c(c3C)CC(C)(C)O4)C(=O)NCC(=O)N[C@@H](CC(=O)OC(C)(C)C)C(=O)NCC(=O)N1)C2=O`, the ring closure, isolated yield in data set [1] (from COC(=O)[C@H](Cc1cn(C(=O)C(C)(C)C)c2ccccc12)NC(=O)CNC(=O)[C@H](CC(=O)OC(C)(C)C)NC(=O)CNC(=O)[C@H](CCCNC(=N)NS(=O)(=O)c1c(C)c(C)c2c(c1C)CC(C)(C)O2)NC(=O)[C@H](CCCCN1C(=O)C=CC1=O)NC(=O)OC(C)(C)C, 29-membered ring) stood at 32%.

In data set [1] (from CC[C@H](C)[C@H](NC(=O)[C@H](Cc1ccccc1)NC(=O)[C@H](CCC(=O)OC(C)(C)C)NC(=O)CCN1C(=O)C=CC1=O)C(=O)NCC(=O)N[C@@H](Cc1cn(C(=O)C(C)(C)C)c2ccccc12)C(=O)OC, 26-membered ring), `CC[C@H](C)[C@@H]1NC(=O)[C@H](Cc2ccccc2)NC(=O)[C@H](CCC(=O)OC(C)(C)C)NC(=O)CCN2C(=O)C=C(C2=O)c2cccc3c(cn(C(=O)C(C)(C)C)c23)C[C@@H](C(=O)OC)NC(=O)CNC1=O` [3-maleimidopropionyl-Glu(OtBu)-Phe-Ile-Gly-Trp(Piv)-OMe] had a ring closure, isolated yield of 35%.

On to `COC(=O)[C@@H]1Cc2cn(C(=O)C(C)(C)C)c3c(cccc23)C2=CC(=O)N(CCCC[C@H](NC(=O)OC(C)(C)C)C(=O)N[C@@H](C)C(=O)N[C@@H](Cc3ccccc3)C(=O)N[C@@H](CC(C)C)C(=O)NCC(=O)N1)C2=O` [Boc-Lys(Nε-maleimide)-Ala-Phe-Leu-Gly-Trp(Piv)-OMe], for which the ring closure, isolated yield in data set [1] (from COC(=O)[C@H](Cc1cn(C(=O)C(C)(C)C)c2ccccc12)NC(=O)CNC(=O)[C@H](CC(C)C)NC(=O)[C@H](Cc1ccccc1)NC(=O)[C@H](C)NC(=O)[C@H](CCCCN1C(=O)C=CC1=O)NC(=O)OC(C)(C)C, 29-membered ring) was 35%.

For `COC(=O)[C@@H]1Cc2cn(C(=O)C(C)(C)C)c3c(cccc23)C2=CC(=O)N(CCCC[C@H](NC(=O)OC(C)(C)C)C(=O)N1)C2=O` [Boc-Lys(Nε-maleimide)-Trp(Piv)-OMe], the ring closure, isolated yield in data set [1] (from COC(=O)[C@H](Cc1cn(C(=O)C(C)(C)C)c2ccccc12)NC(=O)[C@H](CCCCN1C(=O)C=CC1=O)NC(=O)OC(C)(C)C, 17-membered ring) was found to be 0%.

In the case of `N=C(N)NCCC[C@@H]1NC(=O)[C@H](CCCCNC(=S)Nc2ccc3c(c2)C(=O)OC32c3ccc(O)cc3Oc3cc(O)ccc32)NC(=O)[C@@H](Cc2ccccc2)NC(=O)[C@H](CC(=O)O)NC(=O)CNC1=O` [10c, cyclo-(RGDfK (FITC)), reference compound], the dissociation constant Kd in data set [2] came out at 65.5 µM; in data set [3], 2.76 µM; in data set [4] it was 4.13 µM. Further, the kon in [2] stood at 10300 M⁻¹ s⁻¹; in data set [3], 25400 M⁻¹ s⁻¹; in data set [4], 23400 M⁻¹ s⁻¹.

As for `COC(=O)[C@@H]1Cc2c[nH]c3c(cccc23)C2=CC(=O)N(CCCC[C@H](N)C(=O)N[C@@H](CCCNC(=N)N)C(=O)NCC(=O)N[C@@H](CC(=O)O)C(=O)NCC(=O)N1)C2=O` [10a], the figures for the dissociation constant Kd in data set [2], in [3] and in data set [4] were 0.675 µM, 8.36 µM and 6.13 µM, respectively. The kon in data set [2] worked out at 42300 M⁻¹ s⁻¹; in [3], 15300 M⁻¹ s⁻¹; in [4] it was 12500 M⁻¹ s⁻¹.

In data set [1] (from COC(=O)[C@H](Cc1cn(C(=O)C(C)(C)C)c2ccccc12)NC(=O)CNC(=O)[C@H](Cc1ccccc1)NC(=O)[C@@H](NC(=O)[C@H](CCCCN1C(=O)C=CC1=O)NC(=O)OC(C)(C)C)C(C)C, 26-membered ring), `COC(=O)[C@@H]1Cc2cn(C(=O)C(C)(C)C)c3c(cccc23)C2=CC(=O)N(CCCC[C@H](NC(=O)OC(C)(C)C)C(=O)N[C@@H](C(C)C)C(=O)N[C@@H](Cc3ccccc3)C(=O)NCC(=O)N1)C2=O` [Boc-Lys(Nε-maleimide)-Val-Phe-Gly-Trp(Piv)-OMe] yielded a ring closure, isolated yield of 39%.

`COC(=O)[C@@H]1Cc2cn(C(=O)C(C)(C)C)c3c(cccc23)C2=CC(=O)N(CCCCCCCCCCC(=O)N1)C2=O` [11-maleimidoundecanoyl-Trp(Piv)-OMe] returned a ring closure, isolated yield in [1] (from COC(=O)[C@H](Cc1cn(C(=O)C(C)(C)C)c2ccccc12)NC(=O)CCCCCCCCCCN1C(=O)C=CC1=O, 22-membered ring) of 22%.

As for `COC(=O)[C@@H]1Cc2cn(C(=O)C(C)(C)C)c3c(cccc23)C2=CC(=O)N(CCCCCC(=O)N[C@@H](C)C(=O)NCC(=O)N1)C2=O` [6-maleimidohexanoyl-Ala-Gly-Trp(Piv)-OMe], in data set [1] (from COC(=O)[C@H](Cc1cn(C(=O)C(C)(C)C)c2ccccc12)NC(=O)CNC(=O)[C@H](C)NC(=O)CCCCCN1C(=O)C=CC1=O, 23-membered ring), the ring closure, isolated yield is 15%.

Regarding `COC(=O)[C@@H]1Cc2cn(C(=O)C(C)(C)C)c3c(cccc23)C2=CC(=O)N(CCCCCCCCCCC(=O)NCC(=O)NCC(=O)N1)C2=O` [11-maleimidoundecanoyl-Gly-Gly-Trp(Piv)-OMe], in data set [1] (from COC(=O)[C@H](Cc1cn(C(=O)C(C)(C)C)c2ccccc12)NC(=O)CNC(=O)CNC(=O)CCCCCCCCCCN1C(=O)C=CC1=O, 28-membered ring), the ring closure, isolated yield came out at 38%.

In data set [1] (from CC[C@H](C)[C@H](NC(=O)[C@H](CCCCN1C(=O)C=CC1=O)NC(=O)OC(C)(C)C)C(=O)N[C@@H](C)C(=O)NCC(=O)N[C@@H](Cc1cn(C(=O)C(C)(C)C)c2ccccc12)C(=O)N[C@H](C(=O)OC)[C@@H](C)CC, 26-membered ring), `CC[C@H](C)[C@@H]1NC(=O)[C@@H](NC(=O)OC(C)(C)C)CCCCN2C(=O)C=C(C2=O)c2cccc3c(cn(C(=O)C(C)(C)C)c23)C[C@@H](C(=O)N[C@H](C(=O)OC)[C@@H](C)CC)NC(=O)CNC(=O)[C@H](C)NC1=O` [Boc-Lys(Nε-maleimide)-Ile-Ala-Gly-Trp(Piv)-Ile-OMe] displayed a ring closure, isolated yield of 32%.

As to `COC(=O)[C@@H]1Cc2cn(C(=O)C(C)(C)C)c3c(cccc23)C2=CC(=O)N(CCCCCC(=O)NC3(CCCC3)C(=O)N1)C2=O`, the ring closure, isolated yield in data set [1] (from COC(=O)[C@H](Cc1cn(C(=O)C(C)(C)C)c2ccccc12)NC(=O)C1(NC(=O)CCCCCN2C(=O)C=CC2=O)CCCC1, 20-membered ring) was 0%.

For `COC(=O)[C@@H]1Cc2c[nH]c3c(cccc23)C2C(=O)N(CCCC[C@H](N)C(=O)N[C@@H](CCCNC(=N)N)C(=O)NCC(=O)N[C@@H](CC(=O)O)C(=O)NCC(=O)N1)C(=O)C2SCCC(=O)NCC(=O)N[C@@H](Cc1ccccc1)C(=O)N[C@@H](CC(C)C)C(=O)NCC(=O)N[C@H]1C[C@H](O[C@H]2C[C@](O)(C(=O)CO)Cc3c(O)c4c(c(O)c32)C(=O)c2c(OC)cccc2C4=O)O[C@@H](C)[C@H]1O` (stereo partly drawn) [RGD-GFLG-DOX], the “cytotoxicity (in words)” value in [5] is reported as “lower cytotoxicity”; in [6] it was “stronger cytotoxicity than DOX”; in data set [7] it was “lower cytotoxicity”; in data set [8], “lower cytotoxicity”; in data set [9], “stronger cytotoxicity than DOX”; in [10], “lower cytotoxicity”.

`COC(=O)[C@@H]1Cc2cn(C(=O)C(C)(C)C)c3c(cccc23)C2=CC(=O)N(CCC(=O)N[C@@H](CC(=O)OC(C)(C)C)C(=O)N[C@@H](C)C(=O)N[C@@H](C(C)C)C(=O)NCC(=O)N1)C2=O` [3-maleimidopropionyl-Asp(OtBu)-Ala-Val-Gly-Trp(Piv)-OMe] yielded a ring closure, isolated yield in data set [1] (from COC(=O)[C@H](Cc1cn(C(=O)C(C)(C)C)c2ccccc12)NC(=O)CNC(=O)[C@@H](NC(=O)[C@H](C)NC(=O)[C@H](CC(=O)OC(C)(C)C)NC(=O)CCN1C(=O)C=CC1=O)C(C)C, 26-membered ring) of 43%.

In data set [1] (from CC[C@H](C)[C@H](NC(=O)[C@@H](NC(=O)[C@H](Cc1cn(C(=O)C(C)(C)C)c2ccccc12)NC(=O)OC(C)(C)C)C(C)(C)C)C(=O)NCC(=O)N[C@@H](CCCCN1C(=O)C=CC1=O)C(=O)OC, 26-membered ring), `CC[C@H](C)[C@@H]1NC(=O)[C@H](C(C)(C)C)NC(=O)[C@@H](NC(=O)OC(C)(C)C)Cc2cn(C(=O)C(C)(C)C)c3c(cccc23)C2=CC(=O)N(CCCC[C@@H](C(=O)OC)NC(=O)CNC1=O)C2=O` [Boc-Trp(Piv)-Tle-Ile-Gly-Lys(Nε-maleimide)-OMe] had a ring closure, isolated yield of 34%.
